# Read-outs that look alike come from different tables or passages of the source.
# How the values were obtained:
# [1] = target: EphA4 (Homo sapiens, UniProt P54764); experiment: Protein kinase profiling: EphA4; type: biochemical; conditions: read-out: EphA4 inhibited
# Description: To assess Compound 212320's biological activity and selectivity, we performed an in vitro side effect profiling study. Seventy-one targets were tested at 10 μM in duplicate. These targets include neurotransmitter related receptors (30), steroids (2), ion channels (6), second messenger (1), prostaglandins (3), growth factors/hormones (4), brain/gut peptides (13), enzymes (5) and cytochrome p450 (7). […] Additionally, we performed a protein kinase profiling study. Compound 212320 was tested at 1 and 10 μM against 288 kinases. […] These studies indicate that Compound 212320 has high specificity and low side-effects/toxicity potential.
# [2] = tested on: male C57/BL6 mice, focal cerebral ischemia; experiment: Stroke model, transient middle cerebral artery occlusion (MCAO); type: in vivo, mouse; conditions: 24 hours after surgery
# Description: Compound 212320 was evaluated in the transient middle cerebral artery occlusion (MCAO), a well-characterized model of focal cerebral ischemia (experimental stroke). Adult male C57/BL6 mice (60-70 days old) were used. The internal carotid artery was occluded for 60 min. Following reperfusion, mice received 40 mg/kg of Compound 212320 by intraperitoneal injection. 24 hours after surgery, brains were removed and processed to determine infarct volume.
# Mice received 40 mg/kg Compound 212320 or vehicle intraperitoneally and 24 h after stroke, brains were processed to measure infarct volume.
# [3] = tested on: primary dissociated neuron and astrocyte mixed cultures; experiment: Glutamate-induced excitotoxicity in primary neuron and astrocyte mixed cultures (LDH assay, MAP2 immunostaining); type: cell-based; conditions: for MAP2-positive neurons left compared to the control: 0.1 mM glutamate
# [4] = In vivo pharmacokinetic evaluation in male C57Bl/6 mice (LCMS/MS); parameters: species or system mouse; conditions: ip, single i.p. 3 mg/kg; for half-life: estimated
# Description: Compound 212320 is compliant with Lipinski rules and lacks functionality that would predict overt toxicity or reactivity. This compound has a low molecular weight (293.38), cLogP value (3.28) and polar surface area (PSA) value (37.08 Å2) in the range typical of compounds that can penetrate the blood brain barrier. We conducted in vivo pharmacokinetic evaluation of LDN 212320 in male C57Bl/6 mice. After a single intraperitoneal (i.p.) administration of Compound 212320 (3 mg/kg), the plasma and brain concentrations were determined over an 8 hr period by LCMS/MS (FIG. 8A). […] The plasma and brain half-lives were estimated to be 2.63 and 2.64 hr, respectively. The average brain-to-plasma ratio was approximately 2 at all time points tested.
# [5] = tested on: male FVB mice, pilocarpine-induced SE; experiment: Epilepsy model (pilocarpine-induced status epilepticus mouse model); type: in vivo
# Description: Eight- to ten-week-old male FVB mice (22-32 g) received the 1st and 2nd injections of Compound 212320 (at 40 mg/kg in the formulation described above) at 20 and 3 hr prior to induction of seizure with pilocarpine (290 mg/kg, i.p., Sigma). To reduce peripheral cholinergic effects without interfering with the development of SE and chronic seizures, mice received (−) scopolamine methyl nitrate (1.5 mg/kg, Sigma, St. Louis, Mo.) 30 min prior to pilocarpine injection. Control animals were injected with scopolamine followed by saline, instead of pilocarpine. Mice were then observed for 2 hr to record acute seizure severity and latency period. The Racine scale (see Racine, R. J. Modification of seizure activity by electrical stimulation. II. Motor seizure. Electroencephalogr Clin Neurophysiol 32, 281-294 (1972)) was used to rate seizure severity as previously described in Kong, Q., et al. Increased glial glutamate transporter EAAT2 expression reduces epileptogenic processes following pilocarpine-induced status epilepticus. Neurobiol Dis (2012)).
# Mice that reached SE and maintained tonic limbic extension for at least 60 min were kept and treated with compound daily for chronic seizure and pathological studies. The SE mice were fed with food soaked in a high sucrose (10%) saline solution to help recovery in the first 3 days after SE. Vehicle-treated SE mice and compound-treated SE littermates were carefully matched based on the body weight, seizure latency, seizure severity, and post-SE sickness.
# Chronic seizure activities were recorded by webcam (Logitech, Fremont, Calif.) and reviewed using Windows Live Movie Maker. Daylight periods (9 AM-5 PM) were selected for observations because previous literature indicates a higher frequency of spontaneous recurrent seizures during the day (see Kong, Q., et al. Increased glial glutamate transporter EAAT2 expression reduces epileptogenic processes following pilocarpine-induced status epilepticus. Neurobiol Dis (2012); and Shapiro, L. A., Figueroa-Aragon, S. & Ribak, C. E. Newly generated granule cells show rapid neuroplastic changes in the adult rat dentate gyrus during the first five days following pilocarpine-induced seizures. Eur J Neurosci 26, 583-592 (2007)). At 8 weeks post-SE, brain tissue was harvested from SE mice for cresyl violet staining
# Referring to FIG. 3, Compound 212320 reduced mortality rate, spontaneous recurrent seizure and neuronal death following pilocarpine-induced SE. Adult male FVB mice received Compound 212320 (i.p., 40 mg/kg), 3-hr later, were induced seizures with pilocarpine and were then observed for 2 hr to record acute seizure severity and latency period. The Racine scale was used to rate the seizure severity (described above). Mice that reached SE were treated with compound daily and at 4-week post-SE, were recorded chronic seizures for 2 weeks. A total of 15 independent experiments were performed, with a total of 153 vehicle-treated mice and 152 compound 7-4-treated mice. […] FIGS. 3(D-F) show spontaneous recurrent seizure. […] FIGS. 3(G-H) show hippocampal damage.
# [6] = tested on: EAAT2 mRNA; experiment: EAAT2 mRNA in brain by quantitative real-time RT-PCR after i.p. administration; type: in vivo, mouse; conditions: FIG. 8D
# Description: We next examined EAAT2 protein levels and glutamate uptake activities in brain following i.p. administration of Compound 212320 in C57BL/6 mice. Plasma membrane vesicles were prepared from mouse forebrains to measure functional EAAT2 protein. After a single i.p. dose of Compound 212320 at 40 mg/kg, EAAT2 protein levels and associated glutamate uptake increased to ˜1.5-2-fold at 2 hr and to ˜2-3-fold from 8 hr to 24 hr post-injection (FIG. 8B). Even at 72 hr, a ˜1.5 fold increase in EAAT2 protein levels could still be detected (data not shown). In addition, Compound 212320-induced EAAT2 protein levels and glutamate uptake were both dose-dependent (FIG. 8C). This induction was not due to transcriptional activation because EAAT2 mRNA was not increased as measured by quantitative real-time RT-PCR (FIG. 8D). We compared ceftriaxone (200 mg/kg), which increases EAAT2 expression through transcriptional activation, with Compound 212320 (40 mg/kg) that activates EAAT2 translation.
# Sequence of EphA4 (P54764 20-986, species assumed): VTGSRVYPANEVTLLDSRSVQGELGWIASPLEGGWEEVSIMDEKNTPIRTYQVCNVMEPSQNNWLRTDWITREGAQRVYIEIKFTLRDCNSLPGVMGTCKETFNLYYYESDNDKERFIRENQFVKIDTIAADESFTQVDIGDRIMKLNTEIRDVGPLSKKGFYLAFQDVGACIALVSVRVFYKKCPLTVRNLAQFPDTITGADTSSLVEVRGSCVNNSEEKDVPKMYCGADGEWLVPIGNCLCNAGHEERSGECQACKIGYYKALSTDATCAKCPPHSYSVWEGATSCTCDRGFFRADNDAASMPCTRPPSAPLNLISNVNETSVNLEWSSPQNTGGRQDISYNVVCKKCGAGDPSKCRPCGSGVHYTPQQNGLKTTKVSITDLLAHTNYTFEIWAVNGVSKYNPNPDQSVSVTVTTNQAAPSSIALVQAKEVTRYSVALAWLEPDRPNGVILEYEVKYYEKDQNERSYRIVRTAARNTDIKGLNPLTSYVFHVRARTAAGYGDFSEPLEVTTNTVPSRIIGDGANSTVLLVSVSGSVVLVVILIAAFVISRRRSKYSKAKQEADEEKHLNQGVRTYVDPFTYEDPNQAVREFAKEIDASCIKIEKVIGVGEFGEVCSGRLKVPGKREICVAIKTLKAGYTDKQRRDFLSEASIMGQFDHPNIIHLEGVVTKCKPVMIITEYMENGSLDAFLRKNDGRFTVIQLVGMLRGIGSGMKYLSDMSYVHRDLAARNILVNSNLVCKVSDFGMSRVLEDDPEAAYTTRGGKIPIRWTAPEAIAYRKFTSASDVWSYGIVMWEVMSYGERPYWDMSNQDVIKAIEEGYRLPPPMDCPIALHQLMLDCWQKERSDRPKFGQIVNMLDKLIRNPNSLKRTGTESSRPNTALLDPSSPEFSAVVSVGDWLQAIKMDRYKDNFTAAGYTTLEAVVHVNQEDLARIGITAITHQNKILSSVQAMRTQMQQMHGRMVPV
smiles,measurement,setting,value
Cc1ccccc1CSc1ccc(-c2ccccn2)nn1 [Compound 7-4],inhibition at 10 µM,[1],44%
same,Decrease of infarct volume,"[2]; 40 mg/kg i.p. following reperfusion, vs vehicle",57%
same,Infarct volume,"[2]; 40 mg/kg i.p., n=6",6.8±1.6
same,Neuronal loss and degeneration (MAP2 immunostaining),[3]; FIG. 7D,significantly prevented
same,Toxicity in all assays,[3]; cell culture assays,did not cause any detectable toxicity
same,Glutamate-induced cytotoxicity (LDH assay),[3]; glutamate for 2 hr (FIG. 7C),significantly reduced
same,MAP2-positive neurons left compared to the control,[3]; pretreatment at 2 μM,40.4±6.4%
same,MAP2-positive neurons left compared to the control,[3]; pretreatment at 3 μM,60.9±7.3%
same,"Protective effects after pretreatment with dihydrokainic acid (DHK), an EAAT2 blocker",[3]; with DHK pretreatment,partially abolished
same,Kp,"[4]; male, C57Bl/6, mouse, brain, all time points tested, read-out: average brain-to-plasma ratio",~2
same,half-life,"[4]; male, C57Bl/6, mouse, brain, read-out: Brain half-life (converted)",2.64 h
same,half-life,"[4]; male, C57Bl/6, mouse, plasma, read-out: Plasma half-life (converted)",2.63 h
same,Cmax,"[4]; mouse, in vivo, male C57Bl/6 mice",42.1 ± 3.6 ng/mL
same,"Hippocampal damage (hilar neuronal loss, cresyl violet)",[5]; 8 weeks post-SE,significantly attenuated
same,Chronic seizure frequency (stage V spontaneous recurrent seizures),"[5]; daily treatment, recorded from 4-week post-SE for 2 weeks",significantly reduced
same,Mortality rate vs vehicle,[5]; day 7 post-SE,significantly decreased
same,Mortality rate vs vehicle,[5]; day 60 post-SE,significantly decreased
same,Latency to indicated seizure stage vs vehicle,"[5]; i.p., 40 mg/kg",not significantly different
same,Acute seizure severity (percentage of mice reaching each seizure stage) vs vehicle,"[5]; i.p., 40 mg/kg, within 2-hr after pilocarpine",not significantly different
same,Mortality rate vs vehicle,[5]; on the day that SE was induced,no obvious difference
same,EAAT2 mRNA,[6],not increased

# — US9447075B2, “Pyridazine derivatives as EAAT2 activators” (The Brigham and Women's Hospital, Inc., priority 2011, dated 2016)
